{"source": "patent US7671077B2", "about": "“Neuroprotective small organic molecules, compositions and uses related thereto” (priority 2004, dated 2010)", "molecules": {"B1": {"name": "GDNF: glial cell line-derived neurotrophic factor (protein, UniProt P39905 78-211, looked up)", "Glial cell line-derived …": "SPDKQMAVLPRRERNRQAAAANPENSRGKGRRGQRGKNRGCVLTAIHLNVTDLGLGYETKEELIFRYCSGSCDAAETTYDKILKNLSRNRRLVSDKVGQACCRPIAFDDDLSFLDDNLVYHILRKHSAKRCGCI"}}, "key": {"[1]": {"tested_on": "midbrain dopaminergic neurons", "experiment": "Dopamine (DA) uptake assay in primary midbrain cultures", "type": "cell-based, rat", "details": "for activity at 2.5 µM: compound concentration 2.5 μM; for activity at 1.25 µM: compound concentration 1.25 μM", "experimental": "(§1) Primary midbrain cultures were prepared from rat embryo ventral mesencephalon as described previously by Lin et al (1994). In brief, rostral mesencephalic tegmentum of embryonic day 16 rat embryos was collected in DMEM/F12 (Hyclone SH30023.01) containing 2 mM glutamine on ice, The tissue was treated with 0.1% trypsin in Hanks' balanced salt solution (HBSS, Gibco 14175-095) for 15 min at 37° C. and dissociated mechanically by mild trituration with a fire-polished glass pipet in growth medium plus 2% heat-inactivated fetal bovine serum (FBS). The growth medium consisted of equal volumes of Dulbecco's minimal essential medium DMEM (Gibco 12100-046) and HAM's F12 nutrient mixture (Gibco 21700-075) supplemented with 33 mM glucose, 13 mM sodium bicarbonate, 5 mM HEPES, 2 mM glutamine, 25 μg/ml insulin, 100 μg/ml transferrin, 60 μM putrescine, 20 nM progesterone, 30 nM sodium selenite, 5 U/ml penicillin G and 5 μg/ml streptomycin. 24-well tissue culture plate was coated by adding 15 μg/ml poly-1-ornithine hydrobromide solution at 0.5 ml/well, incubated at room temperature for 1 hr. The coating solution was removed and the well washed 3 times with distilled water and one wash with HBSS. The dissociated cells were plated onto polyornithine-coated wells at 250,000-350,000 trypan blue-excluding viable cells per well in 500 μl of above medium containing 1% FBS. After 3 h when most of the cells had adhered to the bottom of the well, the medium was replaced with 500 μl of fresh medium without FBS. A serial dilution of the sample to be assayed for trophic activity was added to each well in duplicate at the time of medium change or within 24 h thereafter. Unless otherwise stated, cultures were incubated at 37° C. without any further medium change up to 7 days. Primary hindbrain cultures were prepared as described for the midbrain cultures except that the rostral raphe region (instead of the rostral mesencephalon) was dissected and trypsinized for 20 (instead of 15) min.\n[^3H]DA uptake was measured in cultures at day 7, and all the solutions were maintained at 37° C. The growth medium was removed, and the cultures were rinsed twice with 0.25 ml of uptake buffer, which consists of HBSS (Gibco 11201-092) supplemented with 28 mM glucose, 15 mM HEPES, 1 mM ascorbic acid (an antioxidant), and […] pargyline (a monoamine oxidase inhibitor). The cultures were then incubated with 0.25 ml of fresh uptake buffer containing 50 nM [^3H]DA (NEN/DuPont) for 20 min at 37° C. [^3H]DA uptake was stopped by removing the incubation mixture, and cells were then washed twice with 0.5 ml of the uptake buffer at room temperature. To release [^3H]DA from the cells, the cultures were lysed with 0.2 ml of 0.1 N NaOH for 1 h at room temperature, the lysate was then added to 1 ml of Microscint-20 (Packard 6013621), and counted for radioactivity in a microplate scintillation counter (Packard TopCount, NXT). Background values were obtained by adding to the uptake buffer 0.5 mM GBR-12909, a specific inhibitor of the high-affinity uptake pump of the dopaminergic neurons, and were usually <5% of the ^3H uptake in untreated control cultures. Forskolin (Fk, 25 μM) was employed as a positive control."}, "[2]": {"tested_on": "TH-positive neurons", "experiment": "TH immunostaining and count of TH-positive neurons in midbrain cultures", "type": "cell-based, rat", "experimental": "(§2) Primary midbrain cultures were prepared from rat embryo ventral mesencephalon as described previously by Lin et al (1994). In brief, rostral mesencephalic tegmentum of embryonic day 16 rat embryos was collected in DMEM/F12 (Hyclone SH30023.01) containing 2 mM glutamine on ice, The tissue was treated with 0.1% trypsin in Hanks' balanced salt solution (HBSS, Gibco 14175-095) for 15 min at 37° C. and dissociated mechanically by mild trituration with a fire-polished glass pipet in growth medium plus 2% heat-inactivated fetal bovine serum (FBS). […]\n(§3) The primary antibodies were: anti-TH monoclonal (1:400, Boehringer-Mannheim); anti-GFAP polyclonal (1:200, DAKO); anti-NSE polyclonal (1:2000, Polysciences Inc.); anti-tryptophan hydroxylase polyclonal (TPH) (1:500, Eugene Tech) and anti-islet-1 monoclonal (1:100, Developmental Studies Hybridoma Bank). […] Process-bearing TH-positive cells were counted at 100× magnification in consecutive fields covering the whole 16-mm-diameter culture well. GFAP-positive cells were counted in half the culture well. NSE-positive cells were counted in 3 photographed fields."}, "[3]": {"tested_on": "NSE-positive cells", "experiment": "NSE immunostaining, total neuron count in midbrain cultures", "type": "cell-based, rat", "details": "2.5 μM; DIV 0, 5 or 7; versus untreated", "experimental": "as §2, §3"}, "[4]": {"tested_on": "GFAP-positive cells", "experiment": "GFAP immunostaining, astrocyte count in midbrain cultures", "type": "cell-based, rat", "details": "midbrain culture, DIV 7", "experimental": "as §2, §3"}, "[5]": {"tested_on": "GABA-containing neurons", "experiment": "GABA uptake assay in midbrain cultures", "type": "cell-based, rat", "details": "midbrain culture, DIV 8, concentration range that increased DA uptake", "experimental": "as §1, with “After 3 h when most of the cells had adhered to the bottom of the well, the medium was replaced with 500 μl of fresh medium without FBS. A serial dilution of the sample to be assayed for trophic activity was added to each well in duplicate at the time of medium change or within 24 h thereafter. Unless otherwise stated, cultures were incubated at 37° C. without any further medium change up to 7 days. Primary hindbrain cultures were prepared as described for the midbrain cultures except that the rostral raphe region (instead of the rostral mesencephalon) was dissected and trypsinized for 20 (instead of 15) min.” left out"}, "[6]": {"tested_on": "serotonergic neurons", "experiment": "Serotonin (5-HT) uptake assay in midbrain cultures", "type": "cell-based, rat", "details": "midbrain culture, DIV 8, concentration range that increased DA uptake", "experimental": "as §1, with “After 3 h when most of the cells had adhered to the bottom of the well, the medium was replaced with 500 μl of fresh medium without FBS. A serial dilution of the sample to be assayed for trophic activity was added to each well in duplicate at the time of medium change or within 24 h thereafter. Unless otherwise stated, cultures were incubated at 37° C. without any further medium change up to 7 days. Primary hindbrain cultures were prepared as described for the midbrain cultures except that the rostral raphe region (instead of the rostral mesencephalon) was dissected and trypsinized for 20 (instead of 15) min.” left out"}, "[7]": {"tested_on": "islet-1^+ motoneurons", "experiment": "islet-1 immunostaining, motoneuron count in midbrain cultures", "type": "cell-based, rat", "details": "2.5 μM; DIV 1, 2 and 3", "experimental": "as §2, §3"}, "[8]": {"tested_on": "TPH^+ cells", "experiment": "TPH immunostaining in primary hindbrain cultures", "type": "cell-based, rat", "details": "hindbrain culture, DIV 13"}, "[9]": {"tested_on": "serotonergic neurons of hindbrain culture", "experiment": "Serotonin (5-HT) uptake assay in primary hindbrain cultures", "type": "cell-based, rat"}, "[10]": {"tested_on": "TH^+ cells", "experiment": "Staining for apoptotic DA neurons (TH / Hoechst 33258)", "type": "cell-based, rat", "details": "2.5 μM added at plating; DIV 13", "experimental": "as §2\nTo measure the percent of DA neurons undergoing apoptosis after different treatments, DIV-13 cultures (which were medium changed twice on DIV 5 and 9) were first stained with an anti-TH antibody and with FITC-conjugated goat anti-mouse secondary antibody (1:200, Jackson Lab) for 1 h at room temperature to label DA neurons. […] Cells were viewed under an inverted fluorescence microscope (Olympus) equipped with appropriate filters. Healthy and apoptotic TH^+ cells TH^+ cell numbers were counted in the entire area of each well by an observer who is blinded to the treatment."}, "[11]": {"tested_on": "TH^+ neurons", "experiment": "MPP^+ induced neurotoxicity in midbrain cultures", "type": "cell-based, rat", "details": "2 μM MPP^+ for 36 h; 2.5 μM compound; control cultures lost 48%", "experimental": "FIG. 34 depicts mechanism of compound A effect in midbrain cultures. 2.5 μM compound A was added at the time of plating. (A) Compound A reduces the rate of apoptosis of TH-positive cells. *p<0.05 versus Con, Student's t test. (B) Compound A protects TH-positive cells from MPP^+ induced neurotoxicity. Cultures at DIV 4 were treated with 2 μM MPP^+ (open bars) for 36 hrs, and processed for TH staining. *p<0.05 versus corresponding cultures not treated with MPP^+ (solid bars). #p<0.05 versus corresponding cultures without Compound A, Student's t test. Data represent averages (n=3) with SD shown in error bars.\nPrimary midbrain cultures were prepared from rat embryo ventral mesencephalon as described previously by Lin et al (1994). […]\nas §3, with “fields. […]” for “fields.”"}, "[12]": {"tested_on": "midbrain dopaminergic neurons", "details": "Lin et al. 1993, 1994; cited from earlier work"}, "[13]": {"details": "Rattus norvegicus, Neuron, midbrain culture, read-out: DA uptake % of control"}}, "note": "Entries after “also recorded” stand apart in the source; their conditions may differ."}
{"molecule": "O=C(/C=C/c1ccccc1Cl)Nc1ccc(S(=O)(=O)Nc2nccs2)cc1", "note": "[Compound A]", "values": [{"measurement": "DA uptake on conjoint treatment with GDNF", "setting": "[1]; 2.5 μM compound A added to a maximally effective concentration of GDNF", "value": "additive effect; also recorded: increased DA uptake above that reached by either GDNF or compound A alone; also recorded: at least as potent as that of forskolin"}, {"measurement": "activity at 2.5 µM", "setting": "[1]; [13]", "value": 240, "unit": "%"}, {"measurement": "Emax", "setting": "[1]; Rattus norvegicus, Neuron, DIV 6, varied between different experiments, read-out: maximal stimulation of DA uptake", "value": "180 to 280", "unit": "%"}, {"measurement": "concentration of maximal effect on DA uptake", "setting": "[1]; dose-dependent effect, FIG. 32A, 7 DIV", "value": "around 2.5 μM"}, {"measurement": "concentration at which the compound was toxic and decreased DA uptake", "setting": "[1]; midbrain culture", "value": "above 10 μM"}, {"measurement": "stimulation of DA uptake (in words)", "setting": "[1]; midbrain culture, 7 DIV", "value": "stimulates dopamine (DA) uptake in a dose-dependent manner"}, {"measurement": "number of TH positive neurons (dopaminergic neuron survival)", "setting": "[2]; 2.5-5 μM added once at the time of plating, day 7 or day 12", "value": "promotes survival of TH^+ neurons; also recorded: about twice as many DA neurons"}, {"measurement": "tyrosine hydroxylase (TH) immunoreactivity", "setting": "[2]; mesencephalic cultures", "value": "upregulated"}, {"measurement": "NSE-positive cell numbers", "setting": "[3]", "value": "does not increase total number of NSE^+ cells; also recorded: indistinguishable from the non-treated control wells"}, {"measurement": "GFAP-positive cell numbers", "setting": "[4]", "value": "does not affect GFAP^+ cell number; also recorded: not affected"}, {"measurement": "GABA uptake", "setting": "[5]", "value": "does not lead to an increase in GABA or 5-HT uptake; also recorded: Neither GABA (FIG. 33C) nor serotonin (FIG. 33D) uptake was significantly affected"}, {"measurement": "GABA uptake", "setting": "[5]; listed as CUR-162590", "value": "little, if any, effect"}, {"measurement": "serotonin (5-HT) uptake", "setting": "[6]", "value": "does not lead to an increase in GABA or 5-HT uptake; also recorded: Neither GABA (FIG. 33C) nor serotonin (FIG. 33D) uptake was significantly affected"}, {"measurement": "serotonin (5-HT) uptake", "setting": "[6]; listed as CUR-162590", "value": "little, if any, effect"}, {"measurement": "number of islet-1^+ motoneurons", "setting": "[7]", "value": "115-150 % of control"}, {"measurement": "survival / number of TPH^+ neurons", "setting": "[8]", "value": "does not change either the number of TPH^+ cells nor the amount of serotonin uptake in hindbrain cultures; also recorded: did not promote the survival of neurons immunoreactive for the key serotonin-synthesizing enzyme TPH"}, {"measurement": "cytotoxicity on the hindbrain culture (inhibition of serotonin uptake)", "setting": "[9]; 10 μM", "value": "showed cytotoxicity on the hindbrain culture"}, {"measurement": "serotonin uptake in hindbrain culture", "setting": "[9]; DIV 8, concentrations necessary for increasing dopamine uptake in midbrain culture", "value": "does not change either the number of TPH^+ cells nor the amount of serotonin uptake in hindbrain cultures; also recorded: nor did it increase serotonin uptake in the hindbrain culture"}, {"measurement": "reduction of the rate of apoptosis of TH^+ cells", "setting": "[10]", "value": "about 50%"}, {"measurement": "loss of TH^+ neurons after MPP^+", "setting": "[11]", "value": 20, "unit": "%"}]}
{"molecule": "Cc1nc(NS(=O)(=O)c2ccc(NC(=O)/C=C/c3ccccc3Cl)cc2)sc1C(=O)O", "note": "[Y′′′]", "values": [{"measurement": "activity at 10 µM", "setting": "[1]; Rattus norvegicus, Neuron, compound concentration 10 μM, midbrain culture, read-out: DA uptake % of control", "value": 160, "unit": "%"}]}
{"molecule": "O=C(/C=C/c1cccc(Cl)c1Cl)Nc1ccc(S(=O)(=O)Nc2nccs2)cc1", "note": "[Y′′′′]", "values": [{"measurement": "activity at 0.6 µM", "setting": "[1]; Rattus norvegicus, Neuron, compound concentration 0.6 μM, midbrain culture, read-out: DA uptake % of control", "value": 180, "unit": "%"}]}
{"molecule": "COc1ccccc1/C=C/C(=O)Nc1ccc(S(=O)(=O)Nc2nc[nH]n2)cc1", "note": "[Y″]", "values": [{"measurement": "activity at 2.5 µM", "setting": "[1]; [13]", "value": 180, "unit": "%"}]}
{"molecule": "O=C(/C=C/c1ccccc1F)Nc1ccc(S(=O)(=O)Nc2ccccn2)cc1", "note": "[Z′′′]", "values": [{"measurement": "activity at 2.5 µM", "setting": "[1]; [13]", "value": 140, "unit": "%"}]}
{"molecule": "COc1ccc(/C=C/C(=O)Nc2ccc(S(=O)(=O)Nc3nccs3)cc2)c(OC)c1", "note": "[Z′′′′]", "values": [{"measurement": "activity at 1.25 µM", "setting": "[1]; [13]", "value": 170, "unit": "%"}]}
{"molecule": "O=C(/C=C/c1ccccc1I)Nc1ccc(S(=O)(=O)Nc2nccs2)cc1", "note": "[Z″]", "values": [{"measurement": "activity at 1.25 µM", "setting": "[1]; [13]", "value": 300, "unit": "%"}]}
{"molecule": "B1", "values": [{"measurement": "concentration at which the effect on DA uptake plateaus", "setting": "[12]", "value": "around 1 ng/ml"}]}
